{"source": "patent US5811442A", "about": "“Pharmaceutical compositions for the treatment of conditions associated with decreased blood flow” (priority 1997, dated 1998)", "key": {"ganglionic receptors": {"tested_on": "ganglionic receptors", "assay": "Determination of Interaction with Ganglia (maximal activation of ganglionic receptors)", "assay_type": "cell-based", "settings": "percentage of the maximal activation induced by (S)-(-)-nicotine", "from_the_text": "Typical ganglionic receptors include α3β4 receptor subtypes, (i.e., non-β2 containing receptor subtypes).\nDetermination of Interaction with Ganglia\nThe ganglionic tissues employed are representative of those which are believed absent of receptor subtypes containing β2-subunits."}, "[1]": {"tested_on": "β2-containing nicotinic acetylcholine receptor subtypes", "assay": "Determination of Dopamine Release (synaptosomes)", "assay_type": "cell-based", "settings": "for EC50: read-out: Dopamine Release EC50", "from_the_text": "Determination of Dopamine Release\nReported EC50 is expressed in nM and Emax represents the amount released relative to nicotine."}, "muscle receptors": {"molecular_target": "T1, muscle receptors (Homo sapiens, UniProt P02708+P07510+Q07001)", "T1 construct": "endogenous in cells", "T1 sequence (P02708 21-457)": "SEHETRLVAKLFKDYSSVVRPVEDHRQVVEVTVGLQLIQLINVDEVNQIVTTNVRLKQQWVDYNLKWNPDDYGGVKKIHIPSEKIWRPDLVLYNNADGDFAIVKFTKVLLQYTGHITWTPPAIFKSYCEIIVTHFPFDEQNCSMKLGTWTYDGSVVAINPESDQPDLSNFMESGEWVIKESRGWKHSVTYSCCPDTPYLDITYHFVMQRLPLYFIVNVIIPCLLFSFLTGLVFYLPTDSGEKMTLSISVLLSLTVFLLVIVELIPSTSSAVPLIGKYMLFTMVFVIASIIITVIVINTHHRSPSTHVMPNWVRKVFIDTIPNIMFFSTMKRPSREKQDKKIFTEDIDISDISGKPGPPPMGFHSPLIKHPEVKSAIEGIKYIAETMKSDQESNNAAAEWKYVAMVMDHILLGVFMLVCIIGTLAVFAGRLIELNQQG", "T1 sequence (P07510 23-517)": "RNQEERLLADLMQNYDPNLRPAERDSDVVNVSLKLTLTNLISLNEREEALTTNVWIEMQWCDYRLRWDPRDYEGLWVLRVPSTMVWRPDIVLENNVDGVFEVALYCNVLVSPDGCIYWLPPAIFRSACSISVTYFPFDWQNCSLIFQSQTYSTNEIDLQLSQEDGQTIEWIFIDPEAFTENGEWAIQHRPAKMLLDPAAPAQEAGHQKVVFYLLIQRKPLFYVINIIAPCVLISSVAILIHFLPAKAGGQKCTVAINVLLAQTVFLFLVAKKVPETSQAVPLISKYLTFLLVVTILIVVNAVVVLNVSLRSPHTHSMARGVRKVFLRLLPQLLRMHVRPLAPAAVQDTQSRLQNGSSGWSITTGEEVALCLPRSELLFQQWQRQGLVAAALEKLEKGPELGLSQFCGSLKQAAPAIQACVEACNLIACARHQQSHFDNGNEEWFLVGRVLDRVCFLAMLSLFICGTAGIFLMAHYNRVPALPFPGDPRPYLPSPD", "T1 sequence (Q07001 22-517)": "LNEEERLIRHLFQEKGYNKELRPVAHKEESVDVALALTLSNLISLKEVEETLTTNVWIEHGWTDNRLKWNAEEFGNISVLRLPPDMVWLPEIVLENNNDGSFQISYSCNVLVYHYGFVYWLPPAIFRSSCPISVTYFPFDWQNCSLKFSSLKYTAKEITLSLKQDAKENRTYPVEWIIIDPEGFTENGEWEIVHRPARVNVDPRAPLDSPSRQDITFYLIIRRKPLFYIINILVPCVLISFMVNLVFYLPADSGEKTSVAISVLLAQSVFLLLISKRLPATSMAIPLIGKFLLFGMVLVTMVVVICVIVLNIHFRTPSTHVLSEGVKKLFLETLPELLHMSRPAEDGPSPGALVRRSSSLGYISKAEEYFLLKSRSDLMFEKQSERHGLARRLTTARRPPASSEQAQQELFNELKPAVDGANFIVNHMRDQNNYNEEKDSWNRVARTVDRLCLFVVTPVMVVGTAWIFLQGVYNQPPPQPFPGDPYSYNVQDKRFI", "assay": "cell-based", "assay_type": "cell-based", "settings": "for Muscle Effect (Emax): percentage of the maximal activation induced by (S)-(-)-nicotine; for Emax: read-out: Muscle Effect (Emax)", "from_the_text": "Determination of Interaction with Muscle\nThe muscle tissues employed are representative of those which are believed absent of receptor subtypes containing β2-subunits."}, "α4β2 receptor subtypes": {"molecular_target": "T2, α4β2 receptor subtypes (Rattus norvegicus, UniProt P09483+P12390)", "T2 construct": "from tissue", "T2 sequence (P09483 31-630)": "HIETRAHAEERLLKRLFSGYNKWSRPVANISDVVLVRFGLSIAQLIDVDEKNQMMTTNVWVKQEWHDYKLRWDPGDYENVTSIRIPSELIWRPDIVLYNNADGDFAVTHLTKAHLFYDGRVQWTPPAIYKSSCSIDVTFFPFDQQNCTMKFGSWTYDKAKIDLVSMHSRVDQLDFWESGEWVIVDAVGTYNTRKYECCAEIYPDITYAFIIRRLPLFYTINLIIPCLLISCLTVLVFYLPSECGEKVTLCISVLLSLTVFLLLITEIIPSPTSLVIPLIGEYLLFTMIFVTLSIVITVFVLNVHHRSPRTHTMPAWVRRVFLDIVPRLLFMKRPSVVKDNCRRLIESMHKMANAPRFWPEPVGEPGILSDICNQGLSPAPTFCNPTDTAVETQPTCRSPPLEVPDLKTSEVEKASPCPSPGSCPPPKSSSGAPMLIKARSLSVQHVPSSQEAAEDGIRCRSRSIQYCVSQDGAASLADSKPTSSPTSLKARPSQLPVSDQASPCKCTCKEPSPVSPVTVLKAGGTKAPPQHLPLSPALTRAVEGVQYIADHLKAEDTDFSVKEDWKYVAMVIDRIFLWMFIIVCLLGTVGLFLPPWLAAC", "T2 sequence (P12390 25-500)": "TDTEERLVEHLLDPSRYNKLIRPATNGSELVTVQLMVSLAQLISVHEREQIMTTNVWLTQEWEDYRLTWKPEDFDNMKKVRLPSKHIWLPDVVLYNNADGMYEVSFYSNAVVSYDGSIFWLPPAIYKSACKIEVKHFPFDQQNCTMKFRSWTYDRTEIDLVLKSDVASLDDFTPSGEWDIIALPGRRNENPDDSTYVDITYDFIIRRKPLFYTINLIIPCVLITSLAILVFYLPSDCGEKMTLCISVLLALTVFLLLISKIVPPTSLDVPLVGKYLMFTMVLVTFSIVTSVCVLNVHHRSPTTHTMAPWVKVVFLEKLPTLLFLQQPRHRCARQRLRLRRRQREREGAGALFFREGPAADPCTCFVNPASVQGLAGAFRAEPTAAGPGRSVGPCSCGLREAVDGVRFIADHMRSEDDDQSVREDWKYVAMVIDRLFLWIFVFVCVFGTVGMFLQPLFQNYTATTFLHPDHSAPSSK", "assay": "Determination of Binding to Relevant Receptor Sites", "settings": "calculated from IC50 values using the method of Cheng et al.", "from_the_text": "Receptor binding constants provide a measure of the ability of the compound to bind to relevant receptor sites of certain cells of the patient.\nDetermination of Binding to Relevant Receptor Sites"}, "[2]": {"tested_on": "nicotinic acetylcholine receptor subtypes including β2-subunits", "settings": "reported; cited from earlier work"}, "[3]": {"settings": "read-out: Dopamine Release Emax"}, "[4]": {"settings": "read-out: Dopamine Release Emax, percentage of release obtained with (S)-(-)-nicotine concentration resulting in maximal effects"}}, "note": "Read-outs that look alike come from different tables or passages of the source."}
{"smiles": "CNCC/C=C/c1ccc(C)nc1", "note": "[Sample No. 1, (E)-N-methyl-4[3-(6-methylpyridin)yl]-3-buten-1-amine monofumarate]", "values": [{"measurement": "Ganglion Effect (Emax)", "setting": "ganglionic receptors", "result": 4, "unit": "% nicotine"}, {"measurement": "EC50", "setting": "[1]", "result": 10000, "unit": "nM"}, {"measurement": "Emax", "setting": "[1]; [3]", "result": 115, "unit": "%"}]}
{"smiles": "CNCC/C=C/c1cncc(-c2ccccc2)c1", "note": "[Sample No. 3, (E)-N-Methyl-4-[3-(5-phenylpyridin)yl]-3-buten-1-amine]", "values": [{"measurement": "Muscle Effect (Emax)", "setting": "muscle receptors", "result": 8, "unit": "% nicotine"}, {"measurement": "Ganglion Effect (Emax)", "setting": "ganglionic receptors", "result": 0, "unit": "% nicotine"}, {"measurement": "EC50", "setting": "[1]", "result": "> 100000", "unit": "nM"}, {"measurement": "Emax", "setting": "[1]; [4]", "result": "> 160", "unit": "%"}]}
{"smiles": "COc1cncc(/C=C/CCN)c1", "note": "[Sample No. 4, (E)-4-[3-(5-methoxypyridin)yl]-3-buten-1-amine monofumarate]", "values": [{"measurement": "Ganglion Effect (Emax)", "setting": "ganglionic receptors", "result": 0, "unit": "% nicotine"}, {"measurement": "EC50", "setting": "[1]", "result": 3800, "unit": "nM"}]}
{"smiles": "CNCC/C=C/c1cncc(N)c1", "note": "[Sample No. 5, (E)-N-methyl-4-[3-(5-aminopyridin)yl]-3-buten-1-amine]", "values": [{"measurement": "Muscle Effect (Emax)", "setting": "muscle receptors", "result": 4, "unit": "% nicotine"}, {"measurement": "Ganglion Effect (Emax)", "setting": "ganglionic receptors", "result": 4, "unit": "% nicotine"}, {"measurement": "EC50", "setting": "[1]", "result": 2000, "unit": "nM"}, {"measurement": "Emax", "setting": "[1]; [4]", "result": 85, "unit": "%"}]}
{"smiles": "CNCC/C=C/c1cncc(OCc2ccccc2)c1", "note": "[Sample No. 6, (E)-N-Methyl-4-[3-(5-benzyloxypyridin)yl]-3-buten-1-amine]", "values": [{"measurement": "Muscle Effect (Emax)", "setting": "muscle receptors", "result": 12, "unit": "% nicotine"}, {"measurement": "Ganglion Effect (Emax)", "setting": "ganglionic receptors", "result": 0, "unit": "% nicotine"}, {"measurement": "EC50", "setting": "[1]", "result": 4000, "unit": "nM"}, {"measurement": "Emax", "setting": "[1]; [4]", "result": 33, "unit": "%"}]}
{"smiles": "CNCC/C=C/c1cncc(Br)c1", "note": "[Sample No. 7, (E-N-methyl-4-[3-5-bromopyridin)yl]-3-buten-1-amine monofumarate]", "values": [{"measurement": "Emax", "setting": "muscle receptors", "result": 8, "unit": "%"}, {"measurement": "Ganglion Effect (Emax)", "setting": "ganglionic receptors", "result": 11, "unit": "% nicotine"}, {"measurement": "EC50", "setting": "[1]", "result": 2400, "unit": "nM"}, {"measurement": "Emax", "setting": "[1]; [4]", "result": 107, "unit": "%"}, {"measurement": "Ki", "setting": "α4β2 receptor subtypes", "result": 79, "unit": "nM"}]}
{"smiles": "CNCC/C=C/c1cncc(OC)c1", "note": "[Sample No. 8, (E)-N-methyl-4-[3-(5-methoxypyridin)yl]-3-butene-1-amine]", "values": [{"measurement": "Muscle Effect (Emax)", "setting": "muscle receptors", "result": 0, "unit": "% nicotine"}, {"measurement": "Ganglion Effect (Emax)", "setting": "ganglionic receptors", "result": 0, "unit": "% nicotine"}, {"measurement": "EC50", "setting": "[1]", "result": 191, "unit": "nM"}, {"measurement": "Emax", "setting": "[1]; [4]", "result": 103, "unit": "%"}, {"measurement": "Ki", "setting": "α4β2 receptor subtypes", "result": 10, "unit": "nM"}]}
{"smiles": "CCOc1cncc(/C=C/CCNC)c1", "note": "[Sample No. 9, (E)-N-methyl-4-[3-(5-ethoxypyridin)yl]-3-butene-1-amine]", "values": [{"measurement": "Muscle Effect (Emax)", "setting": "muscle receptors", "result": 0, "unit": "% nicotine"}, {"measurement": "Ganglion Effect (Emax)", "setting": "ganglionic receptors", "result": 0, "unit": "% nicotine"}, {"measurement": "EC50", "setting": "[1]; dopamine release", "result": 287, "unit": "nM"}, {"measurement": "Dopamine Release Emax", "setting": "[1]; percentage of release obtained with (S)-(-)-nicotine concentration resulting in maximal effects", "result": 124, "unit": "%"}, {"measurement": "Ki", "setting": "α4β2 receptor subtypes", "result": 9, "unit": "nM"}]}
{"smiles": "CNC(C)C/C=C/c1cccnc1", "note": "(stereo not shown) [Sample No. 10, (E)-N-methyl-5-(3-pyridinyl)-4-penten-2-amine]", "values": [{"measurement": "Muscle Effect (Emax)", "setting": "muscle receptors", "result": 4, "unit": "% nicotine"}, {"measurement": "Ganglion Effect (Emax)", "setting": "ganglionic receptors", "result": 6, "unit": "% nicotine"}, {"measurement": "EC50", "setting": "[1]", "result": 21400, "unit": "nM"}, {"measurement": "Emax", "setting": "[1]; [4]", "result": 182, "unit": "%"}, {"measurement": "Ki", "setting": "α4β2 receptor subtypes", "result": 82, "unit": "nM"}]}
{"smiles": "CNCC/C=C/c1cncnc1", "note": "[Sample No. 11, (E)-N-methyl-4-(5-pyrimidinyl)-3-buten-1-amine]", "values": [{"measurement": "Emax", "setting": "muscle receptors", "result": 12, "unit": "%"}, {"measurement": "Ganglion Effect (Emax)", "setting": "ganglionic receptors", "result": 0, "unit": "% nicotine"}]}
{"smiles": "CNCC/C=C\\c1cccnc1", "note": "[Sample No. 12, (Z)-metanicotine monofumarate]", "values": [{"measurement": "EC50", "setting": "[1]", "result": 8310, "unit": "nM"}, {"measurement": "Emax", "setting": "[1]; [3]", "result": 96, "unit": "%"}]}
{"smiles": "NCC/C=C/c1cncc(Br)c1", "note": "[Sample No. 13, (E)-4-[3-(5-Bromopyridin)yl]-3-buten-1-amine Hemifumarate]", "values": [{"measurement": "Emax", "setting": "muscle receptors", "result": 5, "unit": "%"}, {"measurement": "Ganglion Effect (Emax)", "setting": "ganglionic receptors", "result": 0, "unit": "% nicotine"}, {"measurement": "EC50", "setting": "[1]", "result": 49, "unit": "nM"}, {"measurement": "Emax", "setting": "[1]; [4]", "result": 29, "unit": "%"}, {"measurement": "Ki", "setting": "α4β2 receptor subtypes", "result": 707, "unit": "nM"}]}
{"smiles": "CNCC/C=C/c1cccnc1", "note": "[Sample No. 14, (E)-metanicotine monofumarate]", "values": [{"measurement": "EC50", "setting": "[1]", "result": 1020, "unit": "nM"}, {"measurement": "Emax", "setting": "[1]; [3]", "result": 90, "unit": "%"}]}
{"smiles": "CNCC/C=C/c1cncc(Oc2ccccc2)c1", "note": "[Sample No. 15, (E)-N-Methyl-4-[3-(5-phenoxypyridin)yl]-3-buten-1-amine]", "values": [{"measurement": "Muscle Effect (Emax)", "setting": "muscle receptors", "result": 5, "unit": "% nicotine"}, {"measurement": "Ganglion Effect (Emax)", "setting": "ganglionic receptors", "result": "< 15", "unit": "% nicotine"}, {"measurement": "EC50", "setting": "[1]", "result": 114, "unit": "nM"}, {"measurement": "Emax", "setting": "[1]; [4]", "result": 14, "unit": "%"}]}
{"smiles": "CNCC/C=C/c1cncc(OC(C)C)c1", "note": "[Sample No. 16, (E)-N-Methyl-4-[3-(5-isopropoxypyridin)yl]-3-buten-1-amine]", "values": [{"measurement": "Muscle Effect (Emax)", "setting": "muscle receptors", "result": 8, "unit": "% nicotine"}, {"measurement": "Ganglion Effect (Emax)", "setting": "ganglionic receptors", "result": "< 15", "unit": "% nicotine"}, {"measurement": "EC50", "setting": "[1]", "result": 51, "unit": "nM"}, {"measurement": "Emax", "setting": "[1]; [4]", "result": 57, "unit": "%"}]}
{"smiles": "CNCC/C=C/c1cncc(COC)c1", "note": "[Sample No. 17, (E)-N-Methyl-4-[3-(5-methoxymethylpyridin)yl]-3-buten-1-amine]", "values": [{"measurement": "Muscle Effect (Emax)", "setting": "muscle receptors", "result": 13, "unit": "% nicotine"}, {"measurement": "Ganglion Effect (Emax)", "setting": "ganglionic receptors", "result": 0, "unit": "% nicotine"}, {"measurement": "EC50", "setting": "[1]", "result": 16000, "unit": "nM"}, {"measurement": "Emax", "setting": "[1]; [4]", "result": 46, "unit": "%"}]}
{"smiles": "NCC/C=C/c1cccnc1.O=C(O)/C=C/C(=O)O.O=C(O)/C=C/C(=O)O", "note": "[Sample No. 18, (E)-4-(3-pyridinyl)-3-buten-1-amine difumarate]", "values": [{"measurement": "Muscle Effect (Emax)", "setting": "muscle receptors", "result": 15, "unit": "% nicotine"}, {"measurement": "Ganglion Effect (Emax)", "setting": "ganglionic receptors", "result": 23, "unit": "% nicotine"}, {"measurement": "EC50", "setting": "[1]", "result": 5020, "unit": "nM"}, {"measurement": "Emax", "setting": "[1]; [4]", "result": 81, "unit": "%"}]}
{"smiles": "CCOc1cncc(/C=C/CCNC)c1", "note": "[Sample No. 19, (E)-N-Methyl-4-[3-(5-ethoxypyridin)yl]-3-buten-1-amine sesquifumarate]", "values": [{"measurement": "Muscle Effect (Emax)", "setting": "muscle receptors", "result": 3, "unit": "% nicotine"}, {"measurement": "Ganglion Effect (Emax)", "setting": "ganglionic receptors", "result": "< 15", "unit": "% nicotine"}, {"measurement": "EC50", "setting": "[1]; dopamine release", "result": 276, "unit": "nM"}]}
{"smiles": "CN1CCC[C@H]1c1cccnc1", "note": "[Sample No. C-1, (S)-(-)-nicotine, reference compound]", "values": [{"measurement": "Ganglion Effect (Emax)", "setting": "ganglionic receptors", "result": 100, "unit": "% nicotine"}, {"measurement": "Emax", "setting": "[1]; [3]", "result": 100, "unit": "%"}, {"measurement": "affinity to bind to nicotinic acetylcholine receptor subtypes (in words)", "setting": "[2]", "result": "demonstrated affinity to bind to numerous nicotinic acetylcholine receptor subtypes including β2-subunits"}]}
